This note sets out measurements from publication PMC2863073 (Glia, 2008).

This assay relates to oligodendrocyte NMDA receptor (NR1-containing; probably NR1, NR2C and NR3). The assay can be described thus: whole-cell patch clamp of NMDA-evoked current, […] min memantine pre-exposure. The class given is cell-based, Rattus norvegicus. Background: Patch clamp records ionic current or voltage across a cell membrane.

Regarding `CC12CC3CC(C)(C1)CC(N)(C3)C2` [memantine], the IC50 (in general, the concentration that gives 50% inhibition) was 54 µM. That is a double-digit micromolar value.
